Results on 17 molecules are retold here after patent publication US20050272036A1, “Ketones” (priority 2002, published 2005).

For orientation: IC50 means the concentration needed to halve the response being measured. Low readings indicate inhibition by little substance, high ones a need for much substance. A word on the melting point: it is the temperature of the solid-liquid transition.

For one data set, the target named is T1, human 11βHSD1 enzyme (Homo sapiens, UniProt P28845).
T1 construct: a construct containing full-length human 11βHSD1 enzyme (in pCMVHyg); expressed in transfected cells
T1 sequence (P28845 whole entry): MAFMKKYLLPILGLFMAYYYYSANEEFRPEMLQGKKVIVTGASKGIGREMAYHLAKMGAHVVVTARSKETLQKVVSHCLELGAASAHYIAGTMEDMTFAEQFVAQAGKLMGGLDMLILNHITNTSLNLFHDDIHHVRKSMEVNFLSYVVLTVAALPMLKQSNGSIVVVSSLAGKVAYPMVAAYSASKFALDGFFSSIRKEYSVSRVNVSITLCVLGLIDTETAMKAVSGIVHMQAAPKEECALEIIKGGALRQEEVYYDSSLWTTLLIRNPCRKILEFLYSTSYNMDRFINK
As to the kind of experiment: HeLa GRE4-βGal/11βHSD1 cell reporter assay (cortisone to cortisol, β-galactosidase readout). It counts as cell-based. The following applies: HeLa GRE4-βGal/11βHSD1 cells, cortisone 1 μM, overnight incubation, absorbance at 570 nm. From the text:
HeLa cells (human cervical carcinoma derived cells) were stably transfected with a construct containing four copies of the glucocorticoid response element (GRE) linked to a beta-galactosidase reporter gene (3 kb lac Z gene derived from pSV-B-galactosidase). These cells were then further stably transfected with a construct containing full-length human 11βHSD1 enzyme (in pCMVHyg) to create GRE4-βGal/11βHSD1 cells. The principal of the assay is as follows. Cortisone is freely taken up by the cells and is converted to cortisol by 11βHSD1 oxo-reductase activity and cortisol (but not cortisone) binds to and activates the glucocorticoid receptor. Activated glucocorticoid receptor then binds to the GRE and initiates transcription and translation of β-galactosidase. Enzyme activity can then be assayed with high sensitivity by colourimetric assay.
Cells were routinely cultured in DMEM (Invitrogen, Paisley, Renfrewshire, UK) containing 10% foetal calf serum (LabTech), 1% glutamine (Invitrogen), 1% penicillin & streptomycin (Invitrogen), 0.5 mg/ml G418 (Invitrogen) & 0.5 mg/ml hygromycin (Boehringer). Assay media was phenol red free-DMEM containing 1% glutamine, 1% penicillin & streptomycin.
Compounds (1 mM) to be tested were dissolved in dimethyl sulphoxide (DMSO) and serially diluted into assay media containing […]. […]
A cocktail (25 μl) consisting of 10× Z-buffer (600 mM Na2HPO4, 400 mM NaH2PO4.2H2O, 100 mM KCl, 10 MM MgSO4.7H2O, 500 mM β-mercaptoethanol, pH 7.0), SDS (0.2%), chlorophenol red-β-D-galactopyranoside (5 mM, Roche Diagnostics) was added per well and plates incubated at 37° C. for 3-4 hours. β-Galactosidase activity was indicated by a yellow to red colour change (absorbance at 570 nm) measured using a Tecan Spectrafluor Ultra.
The calculation of median inhibitory concentration (IC50) values for the inhibitors was performed using Origin 6.0 (Microcal Software, Northampton Mass. USA). Dose response curves for each inhibitor were plotted as OD units at each inhibitor concentration with relation to a maximum signal (cortisone, no compound) and IC50 values calculated. […]
(In general: A reporter such as luciferase makes a cellular process visible.)
Consider `Cc1ccc(C(=O)Cc2ccsc2)cc1` [Example 3, (Thien-3-ylmethyl)-(4-methylphenyl)-ketone], for which the IC50 is 76.8 nM.

In turn, `O=C(CS(=O)(=O)N1CCCC1)c1ccc(F)cc1` [Example 79, (4-Fluorophenyl)-(pyrrolidin-1-ylsulphonylmethyl)-ketone] yielded a 50% inhibitory concentration (IC50) of 93.5 nM.

Turning to `CC(=O)Nc1ccc(OCC(=O)c2ccc(Cl)cc2)cc1` [Example 155, (4-Chlorophenyl)-(4-acetylaminophenoxymethyl)-ketone], the IC50 worked out at 153 nM.

System in a further data set: not given
Test: not given
Details: not given
For `O=C(Cc1ccc(Cl)c(Cl)c1)c1ccc(Cl)cc1` [Example 4, (4-Chlorophenyl)-(3,4-dichlorophenylmethyl)-ketone], the melting point is 99 to 103 °C.

As for `Cc1ccc(CC(C(=O)c2ccccc2)N2CCCCC2)cc1` (centres unmarked), the melting point was in the range of 71 to 72 °C.

The molecule `O=C(CCc1ccc(F)cc1)c1ccc(C(F)(F)F)cc1` [Example 19, (4-Fluorophenethyl)-(4-trifluoromethylphenyl)-ketone] had a melting point of 66 to 67 °C.

In turn, `O=C(c1ccccc1)C(Cc1ccc(Cl)cc1)c1cccnn1` (centres unmarked) [Example 13, [2-(4-Chlorophenyl)-1-(pyridazin-3yl)ethyl]-(phenyl)-ketone] gave a melting point of 140 to 142 °C.

Molecule `O=C(Cc1ccc(Cl)cc1)c1ccc(Br)cc1` [Reference Example 3, (4-Bromophenyl)-(4-chlorobenzyl)-ketone] showed a melting point of 128 to 129 °C.

On to `O=C(Cc1ccc(Br)cc1)c1ccc(Cl)cc1` [RE 3, (4-Bromobenzyl)-(4-chlorophenyl)-ketone], for which the melting point was 125 to 126 °C.

For the molecule `O=C(CS(=O)(=O)c1ccccc1)c1ccccn1` [Example 100, (Phenylsulphonylmethyl)-(pyrid-2-yl)-ketone], the melting point was 101 to 103 °C.

In turn, `O=C(c1ccc(Cl)cc1)C(Cn1cncn1)c1ccc(Cl)cc1` (stereo not drawn) [Reference Example 16, (4-Chlorophenyl)-[α-(1,2,4-triazol-1-ylmethyl)-4-chlorobenzyl]-ketone] had a melting point of 126 to 128 °C.

In turn, `O=C(Cn1cnc2ccccc21)c1ccc(Cl)cc1Cl` [Example 7, (Benzimidazol-1-ylmethyl)-(2,4-dichlorophenyl)-ketone] yielded a melting point of 130 to 132 °C.

`Cc1ccc(C(=O)CCc2ccc(N3CCN(c4ccncc4)CC3)cc2)cc1` [Reference Example 55, {4-[1-(Pyrid-4-yl)piperazin-4-yl]phenethyl}-(4-methylphenyl)-ketone] registered a melting point of 114 to 115 °C.

`Cc1ccc(C(=O)Cc2ccccc2)cc1` [Reference Example 11, (Benzyl)-(4-methylphenyl)-ketone] gave a melting point of 107 to 111 °C.

For the molecule `O=C(c1cccnc1)C(Cc1ccc(F)cc1)c1ccccc1` (stereo not drawn) [Example 10, [α-(4-Fluorobenzyl)benzyl]-(pyrid-3-yl)-ketone], the melting point is 100 to 102 °C.

The molecule `COc1ccc(C(=O)Cc2ccccc2)cc1` [Reference Example 5, (4-Methoxyphenyl)-(benzyl)-ketone] gave a melting point of 68 to 69 °C.

The subject of another data set is Pancreatic islets.
Test: not given
The conditions noted are these: pancreatic islets (Davani B et al. 2000); cited from earlier work.
Regarding `CC1(C)[C@@H](OC(=O)CCC(=O)O)CC[C@]2(C)[C@H]3C(=O)C=C4[C@@H]5C[C@@](C)(C(=O)O)CC[C@]5(C)CC[C@@]4(C)[C@]3(C)CC[C@@H]12` [carbenoxolone], the “effects of 11-dehydocorticosterone on insulin release” value is reported as “can inhibit the effects of 11-dehydocorticosterone on insulin release”.
